Source: patent US9370522B2, “Heterocyclic compounds for the inhibition of PASK” (BioEnergenix, LLC, priority 2009, dated 2016)

Target: T1, PASK (UniProt #Q96RG2; human recombinant N-terminal GST tagged construct, residues 879-1323) (Homo sapiens, UniProt Q96RG2)
T1 construct: N-terminal GST tagged construct, residues 879-1323; GST (N); made in house; host or cells: insect cells
Assay: 33P-ATP radiometric PASK kinase assay (P81 phosphocellulose, scintillation counting)
Format: biochemical
Settings: Table 2, Myelin Basic Protein 20 μM, 120 min room temperature, average of all trials, read-out: IC50 Kinase Domain
Procedure: Purified PASK (UniProt #Q96RG2; human recombinant N-terminal GST tagged construct, residues 879-1323) from insect cells (final concentration 5 nM) is added to freshly prepared Base Reaction Buffer containing 20 mM Hepes (pH 7.5), 10 mM MgCl2, 1 mM EGTA, 0.02% Brij35, 0.02 mg/ml BSA, 0.1 mM Na3VO4, 2 mM DTT, 1% DMSO and Myelin Basic Protein (20 μM final). Test compounds in DMSO are then added and the mixture, followed by delivery of ^33P-ATP (specific activity 0.01 μCi/μl final) to initiate the reaction. The kinase reaction is incubated for 120 min at room temperature. The entire reaction mixture is washed through onto a P81 Phosphocellulose paper and washed three times for 10 minutes in 75 mM phosphoric acid and once in methanol prior to drying and scintillation counting. When the assay was repeated for a given compound, the activity data is based on the average of all trials.

T1 sequence (Q96RG2 879-1323, stated change not applied): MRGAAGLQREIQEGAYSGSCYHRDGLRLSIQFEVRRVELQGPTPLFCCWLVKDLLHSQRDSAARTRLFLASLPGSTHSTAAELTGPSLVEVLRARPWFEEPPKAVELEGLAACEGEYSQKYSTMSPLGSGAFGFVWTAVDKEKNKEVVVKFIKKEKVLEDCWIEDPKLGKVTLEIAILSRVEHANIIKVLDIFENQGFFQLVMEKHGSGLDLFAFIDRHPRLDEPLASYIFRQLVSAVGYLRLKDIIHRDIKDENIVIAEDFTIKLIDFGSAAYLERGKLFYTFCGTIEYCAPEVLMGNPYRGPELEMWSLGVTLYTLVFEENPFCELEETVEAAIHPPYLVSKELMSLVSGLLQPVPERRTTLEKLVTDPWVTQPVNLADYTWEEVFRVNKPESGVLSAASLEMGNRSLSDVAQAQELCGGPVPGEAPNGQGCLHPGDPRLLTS

SMILES | IC50
O=C(O)c1ccc2nc(-c3ccccc3)c(-c3ccccc3-c3ccccc3)nc2c1 [Example 24, 3-(Biphenyl-2-yl)-2-phenylquinoxaline-6-carboxylic acid] | ≥ 10 µM
O=C(O)c1ccc2nc(-c3ccccc3)c(-c3ccc(O)cc3)nc2c1 [Example 44, 3-(4-Hydroxyphenyl)-2-phenylquinoxaline-6-carboxylic acid] | ≤ 10 µM
O=C(O)c1ccc2nc(-c3ccccc3)c(-c3cccc4ccccc34)nc2c1 [Example 19, 3-(Naphthalene-1-yl)-2-phenylquinoxaline-6-carboxylic acid] | ≤ 10 µM
O=C(O)c1ccc2nc(-c3ccccc3)c(-c3ccoc3)nc2c1 [Example 42, 3-(Furan-3-yl)-2-phenylquinoxaline-6-carboxylic acid] | ≤ 10 µM
O=C(O)c1ccc2nc(-c3ccccc3)c(-c3ccc4ccccc4c3)nc2c1 [Example 18, 3-(Naphthalen-2-yl)-2-phenylquinoxaline-6-carboxylic acid] | ≤ 10 µM
O=C(O)c1ccc2nc(-c3ccccc3)c(-c3ccncc3)nc2c1 [Example 21, 2-Phenyl-3-(pyridin-4-yl)quinoxaline-6-carboxylic acid] | ≤ 10 µM
O=C(O)c1ccc2nc(-c3ccccc3)c(-c3cccc(OC(F)(F)F)c3)nc2c1 [Example 37, 2-Phenyl-3-(3-(trifluoromethoxy)phenyl)quinoxaline-6-carboxylic acid] | ≤ 10 µM
O=C(O)c1ccc2nc(-c3ccccc3)c(-c3ccc([N+](=O)[O-])cc3)nc2c1 [Example 41, 3-(4-Nitrophenyl)-2-phenylquinoxaline-6-carboxylic acid] | ≤ 10 µM
O=C(O)c1ccc2nc(-c3ccccc3)c(-c3ccc(OC(F)(F)F)cc3)nc2c1 [Example 36, 2-Phenyl-3-(4-(trifluoromethoxy)phenyl)quinoxaline-6-carboxylic acid] | ≤ 10 µM
O=C(O)c1cc2nc(-c3ccc(Cl)cc3)c(-c3ccc(Cl)cc3)nc2cc1O [Example 26, 2,3-Bis(4-chlorophenyl)-7-hydroxyquinoxaline-6-carboxylic acid] | ≥ 10 µM
COc1ccc(-c2nc3cc(C(=O)O)ccc3nc2-c2ccccc2)c(OC)c1 [Example 45, 3-(2,4-Dimethoxyphenyl)-2-phenylquinoxaline-6-carboxylic acid] | ≤ 10 µM
N#Cc1ccc(-c2nc3cc(C(=O)O)ccc3nc2-c2ccccc2)cc1 [Example 22, 3-(4-Cyanophenyl)-2-phenylquinoxaline-6-carboxylic acid] | ≤ 10 µM
COc1ccc(-c2nc3cc(C(=O)O)ccc3nc2-c2ccccc2)cc1 [Example 23, 3-(4-Methoxyphenyl)-2-phenylquinoxaline-6-carboxylic acid] | ≤ 10 µM
O=C(O)c1cc2nc(-c3ccc(F)cc3)c(-c3ccc(F)cc3)nc2cc1O [Example 25, 2,3-Bis(4-fluorophenyl)-7-hydroxyquinoxaline-6-carboxylic acid] | ≤ 10 µM
O=C(O)c1ccc2nc(-c3ccccc3)c(-c3ccc(Br)cc3)nc2c1 [Example 31, 3-(4-Bromophenyl)-2-phenylquinoxaline-6-carboxylic acid] | ≤ 10 µM

Next, values leading:

IC50 | SMILES
≤ 10 µM | CCc1ccc(-c2nc3cc(C(=O)O)ccc3nc2-c2ccccc2)cc1 [Example 32, 3-(4-Ethylphenyl)-2-phenylquinoxaline-6-carboxylic acid]
≤ 10 µM | CCOc1ccc(-c2nc3cc(C(=O)O)ccc3nc2-c2ccccc2)cc1 [Example 16, 3-(4-Ethoxyphenyl)-2-phenylquinoxaline-6-carboxylic acid]
≤ 10 µM | O=C(O)c1ccc2nc(-c3ccccc3)c(-c3ccc4c(c3)OCO4)nc2c1 [Example 20, 3-(Benzo[d][1,3]dioxol-5-yl)-2-phenylquinoxaline-6-carboxylic acid]
≤ 10 µM | O=C(O)c1ccc2nc(-c3ccccc3)c(-c3ccc(-c4ccccc4)cc3)nc2c1 [Example 47, 2-Phenyl-3-(4-phenyl-phenyl)quinoxaline-6-carboxylic acid]
≤ 10 µM | Cc1ccccc1-c1nc2cc(C(=O)O)ccc2nc1-c1ccccc1 [Example 39, 2-Phenyl-3-o-tolylquinoxaline-6-carboxylic acid]
≤ 10 µM | O=C(O)c1cc2nc(-c3ccc(O)cc3)c(-c3ccc(O)cc3)nc2cc1O [Example 28, 7-Hydroxy-2,3-bis(4-hydroxyphenyl)quinoxaline-6-carboxylic acid]
≥ 10 µM | O=C(O)c1cc2nc(-c3cccc(O)c3)c(-c3cccc(O)c3)nc2cc1O [Example 29, 7-Hydroxy-2,3-bis(3-hydroxyphenyl)quinoxaline-6-carboxylic acid]
≤ 10 µM | O=C(O)c1ccc2nc(-c3ccco3)c(-c3ccccc3)nc2c1 [Example 12, 2-(Furan-2-yl)-3-phenylquinoxaline-6-carboxylic acid]
≥ 10 µM | CCc1nc2cc(C(=O)O)ccc2nc1-c1ccccc1 [Example 48, 3-Ethyl-2-phenylquinoxaline-6-carboxylic acid]
≤ 10 µM | O=C(O)c1ccc2nc(-c3ccccc3)c(-c3ccc(Cl)cc3)nc2c1 [Example 30, 3-(4-Chlorophenyl)-2-phenylquinoxaline-6-carboxylic acid]
≤ 10 µM | COc1ccc(-c2nc3cc(C(=O)O)ccc3nc2-c2ccccc2)cc1OC [Example 17, 3-(3,4-Dimethoxyphenyl)-2-phenylquinoxaline-6-carboxylic acid]
≤ 10 µM | Cc1ccc(-c2nc3cc(C(=O)O)ccc3nc2-c2ccccc2)cc1 [Example 15, 2-Phenyl-3-p-tolylquinoxaline-6-carboxylic acid]
≤ 10 µM | COc1ccc(-c2nc3cc(O)c(C(=O)O)cc3nc2-c2ccc(OC)cc2)cc1 [Example 27, 7-Hydroxy-2,3-bis(4-methoxyphenyl)quinoxaline-6-carboxylic acid]
≥ 10 µM | O=C(O)c1ccc(-c2nc3cc(C(=O)O)ccc3nc2-c2ccccc2)cc1 [Example 35, 3-(4-Carboxyphenyl)-2-phenylquinoxaline-6-carboxylic acid]
≤ 10 µM | O=C(O)c1ccc2nc(-c3ccccc3)c(-c3cccc(F)c3)nc2c1 [Example 38, 3-(3-Fluorophenyl)-2-phenylquinoxaline-6-carboxylic acid]
≤ 10 µM | Cc1cccc(-c2nc3cc(C(=O)O)ccc3nc2-c2ccccc2)c1 [Example 40, 2-Phenyl-3-m-tolylquinoxaline-6-carboxylic acid]
≥ 10 µM | Cc1nc2cc(C(=O)O)ccc2nc1-c1ccccc1 [Example 14, 3-Methyl-2-phenylquinoxaline-6-carboxylic acid]
≤ 10 µM | O=C(O)c1ccc2nc(-c3ccccc3)c(-c3cccc(O)c3)nc2c1 [Example 46, 3-(3-Hydroxyphenyl)-2-phenylquinoxaline-6-carboxylic acid]
≤ 10 µM | O=C(O)c1ccc2nc(-c3ccccc3)c(-c3ccc(CO)cc3)nc2c1 [Example 34, 3-(4-(Hydroxymethyl)phenyl)-2-phenylquinoxaline-6-carboxylic acid]
≤ 10 µM | O=C(O)c1ccc2nc(-c3ccccc3)c(-c3ccc(C(F)(F)F)cc3)nc2c1 [Example 13, 2-Phenyl-3-(4-(trifluoromethyl)phenyl)quinoxaline-6-carboxylic acid]
≤ 10 µM | O=C(O)c1ccc2nc(-c3ccccc3)c(-c3ccsc3)nc2c1 [Example 43, 2-Phenyl-3-(thiophen-3-yl)quinoxaline-6-carboxylic acid]
